# Key:
# [1] = molecular target: T1, biotinylated NIF binding to immobilized r11bA (Homo sapiens, UniProt P11215); test: Inhibition of biotinylated NIF binding to immobilized r11bA
# T1 construct: recombinant CD11b A domain (rCD11bA) and recombinant CD11a A domain (r11aA) were expressed as GST fusion proteins; GST (N); made in house; host or cells: Escherichia coli
# Protocol: Immobilization of Recombinant Proteins and Polypeptide: Purified rA-domain preparations (1 μg/well), soluble CD54, human fibrinogen (Sigma Chemical Co., St. Loius, Mo.), gelatin (BioRad-Laboratories) or BSA (Calbiochem-Behring Corp.) (each at 10 μg/well) or selected A-domain-derived peptides (10 μg) were added to Immulon-2 96-well microtiter plates (Dynatech Labs, Chantilly, Va.) overnight. Quantitation of adsorbed wild-type and mutant A-domain and synthetic peptides was done using the mAb 44 in an ELISA, and the BCA kit (from Pierce Chemical Co., Rockford, Ill.), respectively. […]
# Biotinylation of recombinant NIP and Measurement of Binding to Immobilized Peptides: Recombinant NIP was labeled with sulfo-NHS-biotin as described by the manufacturer (Pierce Chemical Co.). […] Wells were then washed, incubated with alkaline phosphatase-coupled avidin, washed again, developed with substrate and quantified colormetrically using a microplate reader. […] In experiments where the effects of divalent cations on biotinylated rNIF binding to immobilized rCD11b A-domain were measured, VBSG^−− buffer (veronal-buffered saline, pH=7.4, containing 0.1% gelatin) containing 1 mM of Ca^2+, Mg^2+, Mn^2+, EDTA, EGTA, EGTA plus 1 mM MgCl2, or 1 mM MnCl2. […]
# [2] = tested on: biotinylated NIF binding to human neutrophils; test: Inhibition of biotinylated NIF binding to neutrophils
# Protocol: 100 μg of rNIF were labeled with sulfo-NHS-Biotin as described above. rNIF binding to resting or stimulated human neutrophils (pretreated with 10^−6 M f-met-leu-phe, for 15 minutes at 37° C., then washed) was measured. Increasing amounts of biotinylated rNIF in the absence or presence of 100-fold molar excess of unlabeled rNIF were incubated on ice for one hour with 1×10^6 neutrophils in VBSG^++ in a total volume of […]. Cells were then washed and incubated with phycoerythrin-coupled avidin (Sigma Chemical Co.) under similar conditions, washed again, fixed in 1% paraformaldehyde in PBS, and analyzed using FACScan (Becton Dickinson Co., Mountain View, Calif.). Mean channel fluorescence for each sample was then expressed as a function of the amount of biotinylated rNIF used. Background binding of phycoerythrin-streptavidin alone to neutrophils was subtracted (2.8 fluorescent units). Specific binding was obtained by […], and the values plotted according to Scatchard (Ann. N.Y. Acad. Sci. 51:660, 1949). To determine the effect of unlabeled fluid-phase-r11bA or GST on rNIF binding to neutrophils, each was preincubated at varying concentrations with biotinylated rNIF (20 ng/ml, final concentration) for 15 minutes on ice before addition of the mixture to neutrophils. The effect of mAbs on biotinylated NIF binding to neutrophils was assessed by preincubating the neutrophils with 100 μg/ml of each mAb at 4° C. for 15 minutes before addition of biotinylated NIF (20 ng/ml). The incubation then continued for one hour, followed by processing of cells for FACS analysis as described below.
# T1 sequence (P11215 150-328 limits assumed): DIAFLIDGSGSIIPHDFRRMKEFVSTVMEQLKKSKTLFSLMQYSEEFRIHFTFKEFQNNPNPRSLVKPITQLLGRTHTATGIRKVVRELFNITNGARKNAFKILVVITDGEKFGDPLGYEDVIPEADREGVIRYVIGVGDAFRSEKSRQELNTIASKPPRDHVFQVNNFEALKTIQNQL
substance,measurement,setting,value
"r11bA: recombinant human CD11b A domain (Cys128 to Glu321), expressed as GST fusion protein, used as such or after thrombin cleavage",effect of fluid-phase protein on biotinylated rNIF binding to immobilized r11bA,[1]; dose dependent,abolished
same,IC50,"[1]; fluid-phase protein, read-out: half-maximal inhibition of biotinylated rNIF binding to immobilized r11bA",~1 nM
same,concentration range inhibiting NIF binding to leukocytes,[2],low nM range
same,effect of fluid-phase protein on biotinylated rNIF binding to human neutrophils,[2]; dose dependent,abolished
same,IC50,"[2]; fluid-phase protein, read-out: half-maximal inhibition of biotinylated rNIF binding to human neutrophils",~1 nM

# — patent US20050227296A1, “Method for indentifying integrin antagonists” (The General Hospital Corporation, a Massachusetts …, priority 1988, published 2005)
